Results reported in patent US20060110376A1, “MDA-7 and free radicals in the treatment of cancer” (priority 2002, published 2006).

How the values were obtained:
[1] = tested on: RCC cell lines A498 and UOK121N; test: Cell death (Giemsa staining, trypan blue); format: cell-based, human; conditions: 10 mM N-acetyl cysteine 1 h before As2O3
Protocol: Cells were plated in 6 well plates (˜5×10^4 cells/well) and 24 h later treated with GST, GST-MDA-7 (both 0.5 nM) and As2O3 (0.5 μM) as indicated. Where indicated, cells were pre-treated with 10 mM N-acetyl cysteine 1 h prior to addition of As2O3. Cells were isolated 96 h after GST-MDA-7 treatment. Cell death was determined on isolated fixed cells by Giemsa staining for apoptosis and necrosis (presented as a single value) as described (30). Panel A. UOK121N cells. Panel B. A498 cells. […]
Assessment of Apoptosis and Cell Death. […] For each condition, 10 randomly selected fields per slide were evaluated, encompassing at least 15000 cells (Dai et al., 2002, Cell Cycle 1:143-152; Qiao et al., 2001, Mol. Biol. Cell 12:2629-2645). To confirm the results of morphologic analysis, in some cases cells were also evaluated by TUNEL staining and oligonucleosomal DNA fragmentation assay as follows; staining, cytospin slides were fixed with 4% formaldehyde/PBS for 10 min, treated with acetic acid/ethanol (1:2) for 5 min, and incubated with terminal transferase reaction mixture containing 1× terminal transferase reaction buffer, […] terminal transferase, 2.5 mM CoCl2, and 2 pmol fluorescein-12-dUTP (Boehringer Mannheim, Indianapolis, Ind.) at 37° C. for 1 h. […]
Assessment of Cell Viability. […] Cells (˜400) were counted in all four fields of a hemocytometer.

RT2 cells = test: MTT growth and trypan blue viability with NAC or Ad.Bcl-XL; format: cell-based, rat; conditions: 10 mM NAC 30 min before 6 Gy; Ad.mda-7 25 m.o.i.
Protocol: FIG. 15A-D. Ad.mda-7 reduces the expression of Bcl-XL and increases the levels of BAX, consistent with a causal role of Bcl-XL expression in the radiosensitizing effect. Cells were cultured for 24 h after plating then infected with Ad.mda-7 or CMV control viruses (25 m.o.i.). The cells were irradiated (6 Gy) 24 hours after infection. Cells were isolated 96 h after irradiation and processed. Panel A. Ad.mda-7 and radiation suppress the expression of Bcl-XL and enhance BAX levels in RT2 cells 96 h after irradiation. Cells were processed for SDS PAGE and immunoblotting. A representative study (n=3). Panel B. RT2 cells were cultured for 24 h then infected with Ad.mda-7 or CMV control viruses at 25 m.o.i. The cells were irradiated (6 Gy) 24 hours after infection. Cells were isolated 96 h after irradiation and the integrity of nuclear DNA under each condition determined. Data are from two representative experiments. Panel C. […] Cells were processed 96 h after irradiation and cell viability determined via trypan blue exclusion assay. […]
MIT Assay for Determination of Cellular Viability. […] The cytotoxicity of the various treatments was assessed four days after irradiation by measurement of cell viability by use of the MTT assay, as described previously (Mosmann, 1983, J. Immunol. Methods 65:55-63). The plates were read on a Dynatech MR600 Microplate Reader at 540 nm. […]

SMILES: CC(=O)N[C@@H](CS)C(=O)O [NAC, N-acetyl-cysteine]
- effect of N-acetyl-cysteine on cell killing by GST-MDA-7 + arsenic trioxide [1]: significantly reduced cell killing
- effect of NAC on Ad.mda-7 + radiation cell killing and proliferation (RT2 cells): abolished the enhancement in cell killing and reduction in proliferation
